# Entries after “also recorded” stand apart in the source; their conditions may differ.
# Assays:
# hepatic mitochondria = assay: Oxygen consumption rates of hepatic mitochondria harvested after in vivo treatment (Seahorse XF24); parameters: species or system dog; conditions: treated septic dogs; for coupled respiration (OCR after ADP) of hepatic mitochondria: ADP 4 mM; for maximal (uncoupled) respiration (OCR after FCCP) of hepatic mitochondria: FCCP 4 uM
# Protocol: After completion of the in-vivo measurements, we administered sodium pentobarbital (110 mg/kg) to euthanize the animal. In a subset of animals of each group, we immediately harvested a piece of liver and isolated the mitochondria as described by Schnaitman and Greenawalt (23). Briefly, we minced the extracted liver in mitochondrial isolation buffer (MSHE) that includes 70 mM sucrose, 210 mM mannitol, 5 mM HEPES, 1 mM EGTA, and fatty acid free bovine serum albumin (BSA). We then disrupted the tissue using a drill-driven glass/Teflon dounce homogenizer. We centrifuged the homogenate three times, after which we re-suspended the final pellet in a minimal volume of MSHE+BSA and determined protein (mg/ml). We diluted the mitochondrial preparation in cold mitochondrial assay solution (MAS) that contained 70 mM sucrose, 220 mM mannitol, 10 mM KH2PO4, 5 mM MgCl2, 2 mM HEPES, 1 mM EGTA, and BSA for plating directly onto the custom Seahorse 24-well culture dish (˜20 ug mitochondrial protein/50 ul per well; see further below). After centrifugation of the plate and addition of appropriate substrates, we viewed the mitochondria under a microscope to ensure consistent adherence to the well. We then transferred the plate to the XF24 Analyzer for initiation of the protocol as described below (17).
# To examine mitochondrial function in this model, we used a novel new technology that is capable of measuring dynamic changes in mitochondrial function, not easily attainable by other technologies (17). The Seahorse® XF24 extracellular flux analyser (Seahorse Bioscience, MA, USA) refines the technology by which mitochondrial oxygen consumption can be measured. This technology uses a piston to reversibly enclose a small volume (7 ul) above the mitochondria that can monitor oxygen uptake in that volume for 2-5 min, then raises the piston, allowing the bulk incubation medium (˜1 ml) to re-equilibrate. The ability to make up to 4 additions during the experiment allows mitochondrial respiration to be measured under various metabolic conditions. This piece of equipment has never been used to measure mitochondrial function in SS.
# In this protocol, we sequentially measured mitochondrial function under various metabolic conditions (17). To obtain basal OCR, we first added a substrate to the preparation that contained pyruvate (10 mM) and malate (2 mM). We then added ADP (adenosine-diphosphate; 4 mM) that allows ATP synthase to function, producing an increase in OCR (coupled OCR) that is termed “state3ADP”. When the ATP/ADP ratio approaches equilibrium, pmf rises, after which proton reentry through the synthase stops and respiration slows. We terminated coupled respiration (i.e. state3ADP) by the addition of the ATP synthase inhibitor oligomycin (2.0 uM) in which we achieved “stateoligomycin” where ATP recycling cannot contribute and there is a stable decrease in OCR. We then added the protonophore, FCCP (4 uM; carbonyl cyanide p-trifluoromethoxy-phenylhydrazone). FCCP leads to uncoupled respiration in which we previously titrated the concentration of FCCP to yield a maximal effect. In mitochondria in which ATP synthase activity is a limiting factor, uncoupled respiration may be greater than coupled respiration. […] We finally added rotenone (R; 2 uM) and antimycin A (AA; 2 uM) which are inhibitors of the electron transport chain (ETC) complexes, I and III, respectively. When added to the mitochondrial preparation, these inhibitors produce a marked decline in mitochondrial respiration since the electron transport chain is inhibited.
# With each treatment group, we obtained measurements of basal OCR, coupled OCR (i.e. state3ADP), and maximal OCR. In addition, we calculated coupled and uncoupled respiratory control ratios from state3ADP/stateoligomycin and uncoupled respiration/state FCCP/stateoligomycin, respectively. […]
# [1] = tested on: mitochondrial complex IV (cytochrome c oxidase); assay: Enzymatic activity of hepatic mitochondrial complex IV; type: biochemical, dog; conditions: hepatic mitochondria of treated septic dogs; mean ± SD
# Excerpt: As part of our assessment of mitochondrial function, we also measured the enzymatic activity of hepatic mitochondrial complex IV based on the rationale of Levy et al (10), since these investigators considered that dysfunction of complex IV was the most important determinant of abnormal mitochondrial function in SS. We determined complex IV activity spectrophotometrically by a temperature-controlled Ultrospec™ 2100 ultraviolet-visible spectrophotometer (Biopharmacia Biotech, Uppsala, Sweden) (17). Complex IV activity was measured at 25° C. by monitoring the absorbance decrease of reduced cytochrome c at 550 nm.
# [2] = pH in unbuffered solution; type: physicochemical
# [3] = listed as gentisic, sodium salt
SMILES,coupled respiration (OCR after ADP) of hepatic mitochondria (hepatic mitochondria; [3]),coupled respiration (OCR after ADP) of hepatic mitochondria (hepatic mitochondria; sodium salt),maximal (uncoupled) respiration (OCR after FCCP) of hepatic mitochondria (hepatic mitochondria),augmented respiratory capacity (uncoupled minus coupled respiration) (hepatic mitochondria; [3]),basal respiration (basal OCR) of hepatic mitochondria (hepatic mitochondria; pyruvate and malate substrate),enzymatic activity of mitochondrial complex IV [1],pH in unbuffered solution [2],coupled respiration (OCR after ADP) of hepatic mitochondria (hepatic mitochondria)
"O=C([O-])c1cc(O)ccc1O.[Na+] [GSS, 2,5-dihydroxybenzoic acid sodium salt]",significantly greater than the other groups; also recorded: large increase in coupled respiration,greater response to ADP as compared to the other groups,increase maximal OCR,lowest; also recorded: reduction in augmented respiratory capacity,restoring basal respiration to the non-septic control value,3.68±0.59 umol/min/mg protein,8.2,
"O=C(O)c1cc(O)c(O)c(O)c1 [gallic acid, 3,4,5 trihydroxybenzoic acid]",,,restored the reduction in maximal respiration,,,2.44±0.63 umol/min/mg protein,4.2,not different from values found in the non-septic control group

# Reference: patent US9833425B2, “Gentisic acid is used to improve systemic hemodynamics, hepatic mitochondrial function and lactate acidemia in patients with septic shock” (priority 2015, dated 2017)
